Assays:
liver organoids = assay: Real-time quantitative PCR of lipogenesis- and fibrosis-related genes in fatty liver organoids; assay type: cell-based, mice; conditions: mouse fatty liver organoids, 1 and 3 μM, 72 hours, qPCR
Text: Liver samples or liver organoid samples were homogenized in TRI Reagent (T9424, Sigma), and total RNA was extracted according to the manufacturer's instructions. Equal amounts of RNA template were used to synthesize cDNA with oligo dT primers and MLV reverse transcriptase (Promega). Quantitative data for genes were collected using the Bio-Rad CFX96 real-time PCR system, and the relative amount of gene mRNA was quantified using the comparative CT method.
C57BL/6N mice were fed with fatty liver-inducing diet (TrophicDiet, TP2630052A, containing 10.2% kcal protein, 37.3% kcal carbohydrate, and 52.6% kcal fat) and fructose-containing drinking water (23.1 g of fructose and 18.9 g of dextrose were dissolved in 1 L of water, then filtered and sterilized) for a total of 16 weeks starting at 12 weeks of age to generate a fatty liver model. To generate fatty liver organoids, liver tissues from mice with fatty liver were minced and digested in digestion buffer at 37° C. for 30 to 60 minutes. The digestion buffer included DMEM/F-12 (Cytiva, SH30023.01), 2.5 mg/mL collagenase D (Roche, COLLD-RO), and 0.1 mg/mL DNaseI (Sigma-Aldrich, DN25). […]
To distinguish whether the inhibitory effect of 25-hydroxylanosterol is directly based on its effect on the liver or a systemic effect, we utilized 3D liver organoids as an in vitro model for the study of fatty liver to analyze the effect of 25-hydroxylanosterol on lipogenesis and fibrosis marker expression in liver organoids. […] RNA from the organoids was collected and analyzed for the differential expression of lipogenesis-related genes (Hmgcs, Hmgcr, SCD1, and FASN) and fibrosis markers (αSMA and Colla1) using fluorescent real-time quantitative PCR.
In FIGS. 35 and 36, data are represented as mean±standard deviation. P values were calculated using one-way ANOVA; ns indicates no statistical difference; * indicates P<0.05; ** indicates P<0.01; *** indicates P<0.001. In FIGS. 47 and 53, quantitative analysis was performed using ImageJ software. […] P values were calculated using one-way ANOVA; * indicates P<0.05; ** indicates P<0.01; *** indicates P<0.001.

[1] = Liver microsomal metabolic stability assay; assay type: in vitro ADME; conditions: rat liver microsomes, NADPH, 37° C., 0-60 minutes; read-out: Rat microsomal metabolic half-life (t1/2)
Protocol: PBS solution (100 mM), MgCl2 solution (100 mM), and NADPH solution (20 mM) were prepared respectively. Compound and testosterone (positive control) stock solutions were then prepared with dimethyl sulfoxide (DMSO), diluted to 100 µM with methanol for sample incubation, and stored at −10 to −30° C. 12.5 μL of rat liver microsomes (purchased from XenoTech, Cat. No.: R1000, Lot No.: 1310030, specification: 20 mg/mL), 432.5 µL of PBS solution (100 mM), 25 µL of NADPH solution (20 mM), and 25 μL of MgCl2 solution (100 mM) were added to a 96-well plate, mixed well, and pre-incubated at 37° C. for 5 minutes. 5 µL of substrate (test compound) solution was added to start the reaction. At specified time points of 0, 5, 15, 30, 45, and 60 minutes (0 and 60 minutes for the negative control group), 50 µL of the incubated samples were added to a stop plate containing 100 µL of ice-cold stop solution, vortexed for 1 minute to inactivate the reaction, and stored at −60 to −90° C. for subsequent analysis. Sample analysis of the test compound and the control compound testosterone was performed using LC-MS/MS method. Chromatographic peaks were integrated, calculated, and processed using Analyst software. Semi-quantitative analysis was performed for both the test compound and the control compound testosterone by calculating peak area ratios.

C[C@H](CCCC(C)(C)O)[C@H]1CC[C@@]2(C)C3=C(CC[C@]12C)[C@@]1(C)CC[C@H](O)C(C)(C)[C@@H]1CC3 [compound 68, (1R,3aR,5aR,7S,9aS,11aR)-1-[(2R)-6-hydroxy-6-methylheptan-2-yl]-3a,6,6,9a,11a-pentamethyl-2,3,3a,4,5,5a,6,7,8,9,9a,10,11,11a-tetradecahydro-1H-cyclopenta[1,2-a]phenanthren-7-ol]
expression levels of fibrosis-related genes (Col1a1 and αSMA) (liver organoids): significantly inhibited
expression levels of lipogenesis-related genes (Hmgcs, Hmgcr, SCD1, and FASN) (liver organoids): significantly inhibited
half-life at 1 µM [1]: 8.36 min
